Laboratory results from US20130143902A1, “COMPOSITIONS AND METHODS OF TREATING A PROLIFERATIVE DISEASE WITH A QUINAZOLINONE DERIVATIVE” (GILEAD CALISTOGA LLC, priority 2011, published 2013).
“And” between values parts separate entries of the source, which are not always exact repeats. Identical values can stand only once. Like-named read-outs stand apart in the source and are kept apart here.

How the values were obtained:
[1] = In vivo PK (cannulated rat, IV and PO); settings: for half-life: read-out: T½ (converted)
[2] = Dog PK; type: in vivo; settings: plasma
Text: The pharmacokinetics of Compound A in mouse and dogs were also examined. […] The results of Tmax (time of maximum observed concentration), Cmax (maximum concentration in plasma measured), AUC (area under the curve for plasma concentration versus time), Cl (total body clearance), and Vz (volume of distribution) were summarized in Table 4. As used herein, the mark ‘-’ represents data not relevant. AUC is shown as the unit of ng*h/mL (ng=nanograms, h=hour, mL=milliliter); ng are multiplied by h, and the value is divided by the volume in mL.

[3] = In vitro metabolism in human liver microsomes; type: in vitro ADME
[4] = target: PI3K p110α (Mus musculus, UniProt P42337); test: Cellular p110α signaling: PDGF-stimulated MEFs, pAkt Western blot; type: cell-based, murine
Protocol: To analyze PI3K p110α and p110β signaling, murine embryo fibroblast (MEFs) were removed from FBS and starved for 2 hours followed by stimulation with 10 ng/mL of PDGF (Cell Signaling Technologies, Danvers, Mass.) or 10 μM of LPA (Echelon, Salt Lake City, Utah) for 10 minutes at 37° C., respectively. After washing once in cold phosphate-buffered saline (PBS), the cell pellet was resuspended in 1× cell lysis buffer (Cell Signaling Technologies) supplemented with mini protease inhibitor mix (Roche, Indianapolis, Ind.), phosphate inhibitor cocktail set I and II (Calbiochem, San Diego, Calif.) for 15 minutes on ice. Whole-cell lysates were obtained by centrifugation at 16,000 g for 10 minutes at 4° C., and the soluble protein was analyzed by Western blotting for Akt and pAkt levels. To analyze PI3K p110δ and p110γ signaling, basophil activation was measured in isolated PBMC or whole blood using the Flow2 CAST kit according to the manufacture's standardized methods (Buhlman Laboratories AG, Switzerland). Briefly, p110δ was activated with anti-FCεRI and p110γ was activated with fMLP (2 μM) in the absence or presence of compounds. To monitor the basophil cell population and cellular activation, anti-CD63-FITC and anti-CCR3-PE antibodies were added to each sample. Cells were fixed and analyzed on a FC500 MPL flow cytometer (Beckman Coulter, Brea, Calif.).

[5] = system: Solid tumor; test: Cellular viability, solid tumor; type: cell-based; settings: N = 14
Protocol: (§1) For primary T-ALL samples, cell viability was determined using the BD Cell Viability kit (BD Biosciences) and fluorescent counting beads as previously described in Armstrong, F. et al., NOTCH is a key regulator of human T-cell acute leukemia initiating cell activity, Blood 113, 1730-1740 (2009). Cells were plated with MS5-DL1 stroma cells. After 72 hours following treatment, cells were harvested and stained with an APC-conjugated anti-human CD45 according to the manufacturer's instructions. For solid tumor cell lines, cellular viability was determined using the AlamarBlue kit (Invitrogen). About 10,000 cells in 100 μL of media containing 10% FBS were aliquoted into individual wells of a 96-well plate and treated with vehicle (DMSO) or compound in triplicate for 24 hours. Ten μL of AlamarBlue reagent was added to each well and incubated for 4 hours at 37° C. with 5% CO2. Fluorescence was measured with an excitation wavelength at 530 to 560 nm and emission wavelength at 590 nm using Spectramax M5 plate reader (Molecular Devices, Sunnyvale, Calif.).
(§2) Cellular viability and pAkt activity were used to determine effects of Compounds A, C, and D in solid tumor, B-cell malignancies, and T-cell malignancies.

[6] = system: pAkt in solid tumor; test: pAkt activity, solid tumor; type: cell-based; settings: N = 14
Text: as §2

[7] = system: B Cell Malignancies; test: Cellular viability, B cell malignancies; type: cell-based; settings: N = 7
Text: as §2

[8] = system: pAkt in T Cell Malignancies; test: pAkt activity, T cell malignancies; type: cell-based; settings: N = 7
Text: as §2

[9] = system: SF-295; test: pAkt pathway inhibition, SF-295; type: cell-based; settings: Homo sapiens; SF-295, CNS
[10] = system: UACC-62; test: pAkt pathway inhibition, UACC-62; type: cell-based; settings: Homo sapiens; UACC-62, Melanoma
[11] = system: BT549; test: pAkt pathway inhibition, BT549; type: cell-based; settings: Homo sapiens, BT-549; BT549, Breast
[12] = system: MDA-MB-468; test: pAkt pathway inhibition, MDA-MB-468; type: cell-based; settings: Homo sapiens; MDA-MB-468, Breast
[13] = system: U138MG; test: pAkt pathway inhibition, U138MG; type: cell-based; settings: Homo sapiens, U138-MG, Glioma
[14] = system: U251; test: pAkt pathway inhibition, U251; type: cell-based; settings: Homo sapiens, U-251; U251, Glioma
[15] = system: VCaP; test: pAkt pathway inhibition, VCaP; type: cell-based; settings: Homo sapiens, Prostate
[16] = system: 22Rv1; test: pAkt pathway inhibition, 22Rv1; type: cell-based; settings: Homo sapiens; 22Rv1, Prostate
[17] = system: PC3; test: Viability (AlamarBlue), PC3; type: cell-based; settings: Homo sapiens, PC-3; PC3, Prostate
Protocol: as §1

[18] = system: IGROV-1; test: Viability (AlamarBlue), IGROV-1; type: cell-based; settings: Homo sapiens; IGROV-1, Ovarian
Protocol: as §1

[19] = system: LNCaP; test: Viability (AlamarBlue), LNCaP; type: cell-based; settings: Homo sapiens, Prostate
Protocol: as §1

[20] = system: T47D; test: Viability (AlamarBlue), T47D; type: cell-based; settings: Homo sapiens, Breast
Protocol: as §1

[21] = system: LN229; test: Viability (AlamarBlue), LN229; type: cell-based; settings: Homo sapiens, LN-229; LN229, Glioma
Protocol: as §1

[22] = system: U87MG; test: Viability (AlamarBlue), U87MG; type: cell-based; settings: Homo sapiens, U-87 MG, Glioma
Protocol: as §1

[23] = system: 22Rv1; test: Viability (AlamarBlue), 22Rv1; type: cell-based; settings: Homo sapiens; 22Rv1, Prostate
Protocol: as §1

[24] = system: primary T-ALL tumors; test: Viability of primary T-ALL tumors; type: cell-based, human; settings: 1.0, 2.5, and 5.0 μM, 72 hours
Protocol: Cryopreserved samples from the Columbia Presbyterian Hospital, the Erasmus MC-Sophia Children's Hospital, and the University of Padua were used. All samples were collected with informed consent and supervised by the institutes' review boards and the Acute Lymphoblastic Leukemia Strategic Scientific Committee.
as §1, with “Calif.). […]” for “Calif.).”

[25] = IV 1 mg/kg, individual rats, 1 mg/kg
[26] = rat, plasma, iv, 1 mg/kg, IV 1 mg/kg, individual rats
[27] = rat, plasma, iv, 1 mg/kg, IV 1 mg/kg, mean of 3 rats
[28] = rat, plasma, po, 3 mg/kg, PO 3 mg/kg, individual rats
[29] = rat, plasma, po, 3 mg/kg, PO 3 mg/kg, mean of 3 rats
[30] = rat, plasma, po, 30 mg/kg, PO 30 mg/kg, individual rats
[31] = rat, plasma, po, 30 mg/kg, PO 30 mg/kg, mean of 3 rats

Chain of PI3K p110α (P42337 whole entry): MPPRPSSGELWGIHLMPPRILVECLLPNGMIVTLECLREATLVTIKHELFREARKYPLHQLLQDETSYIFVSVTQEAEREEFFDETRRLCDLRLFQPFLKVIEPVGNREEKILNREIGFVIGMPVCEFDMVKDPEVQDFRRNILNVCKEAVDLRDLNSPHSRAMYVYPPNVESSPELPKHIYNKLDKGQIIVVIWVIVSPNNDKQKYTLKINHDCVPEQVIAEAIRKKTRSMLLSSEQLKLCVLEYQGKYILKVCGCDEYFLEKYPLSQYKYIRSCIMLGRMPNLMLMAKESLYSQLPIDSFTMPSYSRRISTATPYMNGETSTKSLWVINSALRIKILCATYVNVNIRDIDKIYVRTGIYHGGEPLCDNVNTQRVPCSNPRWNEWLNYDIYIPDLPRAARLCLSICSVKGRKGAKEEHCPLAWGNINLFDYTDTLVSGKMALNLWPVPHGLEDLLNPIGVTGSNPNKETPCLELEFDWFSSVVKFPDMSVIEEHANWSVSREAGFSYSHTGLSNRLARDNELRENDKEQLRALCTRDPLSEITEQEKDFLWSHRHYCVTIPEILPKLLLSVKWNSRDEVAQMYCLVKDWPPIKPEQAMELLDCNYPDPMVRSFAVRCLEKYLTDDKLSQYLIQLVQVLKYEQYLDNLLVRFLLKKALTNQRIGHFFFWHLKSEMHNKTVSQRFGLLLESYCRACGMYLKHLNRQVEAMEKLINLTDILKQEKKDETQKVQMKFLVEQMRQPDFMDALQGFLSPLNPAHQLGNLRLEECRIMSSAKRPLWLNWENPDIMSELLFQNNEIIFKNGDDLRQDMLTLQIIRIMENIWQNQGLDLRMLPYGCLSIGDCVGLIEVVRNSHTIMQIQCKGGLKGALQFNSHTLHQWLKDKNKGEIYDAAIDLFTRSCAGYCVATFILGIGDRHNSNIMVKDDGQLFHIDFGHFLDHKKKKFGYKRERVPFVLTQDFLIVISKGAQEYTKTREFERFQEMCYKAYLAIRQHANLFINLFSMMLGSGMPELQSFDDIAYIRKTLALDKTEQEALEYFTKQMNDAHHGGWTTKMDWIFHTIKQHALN
Chain of PI3K p110α (P26450 whole entry partner): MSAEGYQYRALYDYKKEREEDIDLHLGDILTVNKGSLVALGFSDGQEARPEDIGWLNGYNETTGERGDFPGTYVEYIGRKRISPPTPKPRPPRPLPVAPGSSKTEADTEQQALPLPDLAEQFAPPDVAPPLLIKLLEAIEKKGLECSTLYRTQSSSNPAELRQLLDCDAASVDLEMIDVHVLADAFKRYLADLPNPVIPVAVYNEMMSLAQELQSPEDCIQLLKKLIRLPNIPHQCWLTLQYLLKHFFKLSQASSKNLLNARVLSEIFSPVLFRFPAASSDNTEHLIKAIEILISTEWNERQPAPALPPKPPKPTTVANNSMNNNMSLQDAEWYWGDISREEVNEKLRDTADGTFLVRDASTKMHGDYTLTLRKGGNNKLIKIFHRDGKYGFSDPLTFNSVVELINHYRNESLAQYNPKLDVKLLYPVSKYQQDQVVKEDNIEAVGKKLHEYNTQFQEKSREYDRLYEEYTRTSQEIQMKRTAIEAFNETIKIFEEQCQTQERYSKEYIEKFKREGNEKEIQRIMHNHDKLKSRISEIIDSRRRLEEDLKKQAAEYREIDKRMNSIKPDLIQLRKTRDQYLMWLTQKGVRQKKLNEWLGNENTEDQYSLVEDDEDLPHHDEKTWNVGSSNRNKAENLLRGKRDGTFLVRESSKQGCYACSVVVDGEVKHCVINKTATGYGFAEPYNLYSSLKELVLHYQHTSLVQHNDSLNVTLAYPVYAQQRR

With `CC(Nc1ncnc2[nH]cnc12)c1nc2cccc(Cl)c2c(=O)n1-c1ccccc1` (stereo not shown) [Compound A, 2-(1-(9H-purin-6-ylamino)ethyl)-5-chloro-3-phenylquinazolin-4(3H)-one] the Vss [1, 25] was 1.32 L/kg and 1.674 L/kg, the Vz [1, 25] was 5.849 L/kg and 1.768 L/kg and the Bioavailability ([1]; PO 3 mg/kg, individual rats (Rat 1, 2, 3), 3 mg/kg) was 81% and 37%. For the same compound, the Cmax ([1]; PO 3 mg/kg, individual rats, 3 mg/kg) was 457 ng/mL and 345 ng/mL, the Bioavailability ([1]; PO 30 mg/kg, individual rats (Rat 4, 5, 6), 30 mg/kg) was 138% and 128% and 87% and the Cmax ([1]; PO 30 mg/kg, individual rats, 30 mg/kg) was 5770 ng/mL and 4320 ng/mL. The AUC ([1]; plasma, Rat, PO 3 mg/kg (Table 4)) was 2000 ng·h/mL, the clearance ([1]; rat, plasma, iv, 1 mg/kg, IV 1 mg/kg (Table 4)) was 15.2 mL/min/kg and the AUC(0-inf) [1, 26] was 1050 ng·h/mL. For the same compound, the AUC(0-t) [1, 26] was 1040 ng·h/mL, the Vd ([1]; rat, plasma, iv, 1 mg/kg, IV 1 mg/kg, individual rats, read-out: Vss) was 2.64 L/kg and the AUC(0-inf) [1, 27] was 1130 ng·h/mL. For the same compound, the AUC(0-t) [1, 27] was 1100 ng·h/mL, the Vd ([1]; rat, plasma, iv, 1 mg/kg, IV 1 mg/kg, mean of 3 rats, read-out: Vss) was 1.88 L/kg and the Vd ([1]; rat, plasma, iv, 1 mg/kg, IV 1 mg/kg, mean of 3 rats, read-out: Vz) was 2.99 L/kg. It also gave a Vd ([1]; rat, plasma, iv, 1 mg/kg, Rat, IV 1 mg/kg (Table 4), read-out: Vz) of 2.99 L/kg, a Tmax ([1]; rat, plasma, po, 3 mg/kg, PO 3 mg/kg (Table 4)) of 1.3 h and a Tmax [1, 28] of 1 h. For the same compound, the Cmax ([1]; rat, plasma, po, 3 mg/kg, PO 3 mg/kg, individual rats, read-out: Cmax) was 568 ng/mL, the half-life [1, 28] was 2.9 h and the AUC(0-inf) [1, 29] was 2010 ng·h/mL. For the same compound, the AUC(0-t) [1, 29] was 2000 ng·h/mL, the Bioavailability ([1]; rat, plasma, po, 3 mg/kg, PO 3 mg/kg, mean of 3 rats, read-out: Bioavailability) was 59% and the Cmax ([1]; rat, plasma, po, 3 mg/kg, PO 3 mg/kg, mean of 3 rats, read-out: Cmax) was 456 ng/mL. For the same compound, the Cmax ([1]; rat, plasma, po, 3 mg/kg, Rat, PO 3 mg/kg (Table 4), read-out: Cmax) was 456 ng/mL, the AUC(0-inf) [1, 30] was 46800 ng·h/mL and the Tmax [1, 30] was 4 h. For the same compound, the Cmax ([1]; rat, plasma, po, 30 mg/kg, PO 30 mg/kg, individual rats, read-out: Cmax) was 5800 ng/mL, the half-life [1, 30] was 2.27 h and the AUC(0-inf) [1, 31] was 40000 ng·h/mL. The AUC(0-t) [1, 31] was 40000 ng·h/mL, the Bioavailability ([1]; rat, plasma, po, 30 mg/kg, PO 30 mg/kg, mean of 3 rats, read-out: Bioavailability) was 118% and the Cmax ([1]; rat, plasma, po, 30 mg/kg, PO 30 mg/kg, mean of 3 rats, read-out: Cmax) was 5300 ng/mL. The “time at which plasma levels peaked after administration” value ([1]; rats, single dose, over a period of 24 hours (data not shown)) was 2 to 4 h, the clearance ([2]; IV 1 mg/kg) was 6.08 mL/min/kg and the Vd ([2]; IV 1 mg/kg, read-out: Vz) was 0.891 L/kg. It also gave an AUC ([2]; PO 1 mg/kg) of 4450 ng·h/mL, a Cmax ([2]; PO 1 mg/kg) of 1040 ng/mL and a Tmax ([2]; PO 1 mg/kg) of 2.3 h. The In vitro metabolism [3] was “Stable in human liver microsomes”, the EC50 [4] was 6 µM and the EC50 [5] was 1.7 µM. The EC50 [6] was 0.188 µM, the EC50 [7] was 0.42 µM and the EC50 [8] was 0.31 µM. The EC50 [9] was 162 nM, the EC50 [10] was 45 nM and the EC50 [11] was 34 nM. For the same compound, the EC50 [12] was 56 nM, the EC50 [13] was 2290 nM and the EC50 [14] was 2250 nM. For the same compound, the EC50 [15] was 1200 nM, the EC50 [16] was 250 nM and the GI50 [17] was 2.4 µM. The GI50 [18] was 1.3 µM, the GI50 [19] was 0.22 µM and the GI50 [20] was 1.7 µM. For the same compound, the GI50 [21] was 3 µM, the GI50 [22] was 2.5 µM and the GI50 [23] was 2.3 µM. The “viability of tumor cells” value [24] was “reduced viability”.
